Converted amounts (≈) assume the structure as drawn.
Assays:
[1] = test system: B16F10 melanoma cells; experiment: Cytotoxic and antiproliferative effects by the MTT colorimetric method on B16F10 melanoma cells; format: cell-based, murine; conditions: Mus musculus, B16-F10, 24 h, compound diluted in Miglyol 810; 24 hour; from the linear equation; read-out: IC50
Text: Analysis of Cytotoxic and Antiproliferative Effects of HB-1 Compound and Miglyol 810® as Control by the MTT Colorimetric Method on B16F10 Melanoma Cells.
The colorimetric methodology for the respiratory route of mitochondria MTT (3-(4,5-dimethylthiazol-2-yl)2,5-diphenyl tetrazolium bromide) was used, as described by MOSMANN (1983). This method is based on the reduction of MTT to formazan by living cells. After growth and in vitro confluence of normal and tumoral cells, different concentrations of the HB-1 compound diluted in Miglyol 810® and the diluent-control (Miglyol 810®) have been added on the adhering cells, incubated for 24 hour. After the referred period, 10 μl of MTT (5 mg/mL) were added and incubated for 3 hours in stove with 5% CO2 at 37° C. After this period, the content of the culture plates were centrifuged for 2 minutes at 1800 rpm, at 4° C., the supernatant was removed and 100 μL of dimethyl sulfoxide (DMSO) were added to dissolve formazan crystals previously constituted and precipitated. The absorbances were obtained by an ELISA reader at 540 nm (TiterTek Multiskan) wavelength, with the results obtained shown in FIG. 12.
IC50 Evaluation for B16F10 Melanoma Cells, Obtained from the Linear Equation.

[2] = test system: promastigote forms of Leishmania (L) amazonensis (isolate LV79); experiment: Promastigote proliferation in Warren medium, Neubauer chamber count; format: cell-based
Description: Compounds are solubilized with dimethyl sulfoxide (DMSO) to produce a stock solution from which samples with different concentrations are obtained, by adding the culture medium in sufficient volume as required to attain the first desired concentration with the other concentrations being obtained by serial dilution of this first one, at ratio 2. The cultures are incubated at 22° C. or 34° C. for promastigotes and amastigotes, respectively.
As a positive control for parasite viability evaluation, only culture medium and parasite, without any other addition, were used. As toxicity control for the solvent present in compound composition, parasite forms were incubated with DMSO diluted in culture medium.
To quantify the promastigotes, Neubauer chambers are used and the cultures are quantified every 24 hours throughout the incubation period scheduled for each experiment. The samples are prepared from an initial dilution of 20 μL of the culture into 180 μL of the saline solution formulated (PBS+2% formaldehyde) to obtain a 1/10 dilution. Whenever necessary, serial dilutions may be performed from the first dilution. For all experiments, parasite forms should be incubated with several HB-1 concentrations, its respective controls with DMSO (we should have in mind that the initial HB-1 stock solution was prepared with DMSO and that its toxicity in relation to the parasite forms have to be assessed) and the normal culture, without any component additioned to the medium. Countings are performed as duplicates, by two different people and the final result is expressed as the arithmetic average from the two countings. The same procedure is employed to quantify the amastigote forms.
Promastigote forms of Leishmania (L) amazonensis (isolate LV79, 8th passage for the culture medium, day 7 of culture, stationary phase) are incubated in a proportion of 10^6 promastigotes/mL in Warren medium, 3.0 mL final volume, in the presence of different concentrations of HB-1 and of the respective controls in equivalent volume of DMSO and culture medium, as positive control for proliferation and viability. The effect of HB-1 on the promastigotes of Leishmania amazonensis cultivated in Warren medium is shown in the next Table and FIG. 33.

COc1cc(C=CC(=O)C=Cc2ccc(O)c(OC)c2)ccc1O [HB-1, 1,5-Bis-(4-hydroxy-3-methoxy-phenyl)-penta-1,4-dien-3-one]
IC50 [1]: 7 µg/mL (≈ 21.4 µM) | N^o. of promastigotes/mL (×10^6) ([2]; HB-1 3.12 μg/mL, 24 hours, Warren medium): 3.0 ×10^6 promastigotes/mL | N^o. of promastigotes/mL (×10^6) ([2]; HB-1 3.12 μg/mL, 48 hours, Warren medium): 5.95 ×10^6 promastigotes/mL | N^o. of promastigotes/mL (×10^6) ([2]; HB-1 3.12 μg/mL, 72 hours, Warren medium): 10 ×10^6 promastigotes/mL | N^o. of promastigotes/mL (×10^6) ([2]; HB-1 3.12 μg/mL, 96 hours, Warren medium): 11 ×10^6 promastigotes/mL | N^o. of promastigotes/mL (×10^6) ([2]; HB-1 3.12 μg/mL, 120 hours, Warren medium): 17 ×10^6 promastigotes/mL | N^o. of promastigotes/mL (×10^6) ([2]; HB-1 6.25 μg/mL, 24 hours, Warren medium): 2.5 ×10^6 promastigotes/mL | N^o. of promastigotes/mL (×10^6) ([2]; HB-1 6.25 μg/mL, 48 hours, Warren medium): 3.95 ×10^6 promastigotes/mL | N^o. of promastigotes/mL (×10^6) ([2]; HB-1 6.25 μg/mL, 72 hours, Warren medium): 7.15 ×10^6 promastigotes/mL | N^o. of promastigotes/mL (×10^6) ([2]; HB-1 6.25 μg/mL, 96 hours, Warren medium): 13.0 ×10^6 promastigotes/mL | N^o. of promastigotes/mL (×10^6) ([2]; HB-1 6.25 μg/mL, 120 hours, Warren medium): 18.6 ×10^6 promastigotes/mL | effect on promastigotes in words ([2]; HB-1 12.5 μg/mL to 3.12 μg/mL, Warren medium): sub-lethal | N^o. of promastigotes/mL (×10^6) ([2]; HB-1 12.5 μg/mL, 24 hours, Warren medium): 2.55 ×10^6 promastigotes/mL | N^o. of promastigotes/mL (×10^6) ([2]; HB-1 12.5 μg/mL, 48 hours, Warren medium): 2.25 ×10^6 promastigotes/mL | N^o. of promastigotes/mL (×10^6) ([2]; HB-1 12.5 μg/mL, 72 hours, Warren medium): 3.9 ×10^6 promastigotes/mL | N^o. of promastigotes/mL (×10^6) ([2]; HB-1 12.5 μg/mL, 96 hours, Warren medium): 5.9 ×10^6 promastigotes/mL | N^o. of promastigotes/mL (×10^6) ([2]; HB-1 12.5 μg/mL, 120 hours, Warren medium): 18.3 ×10^6 promastigotes/mL | N^o. of promastigotes/mL (×10^6) ([2]; HB-1 25 μg/mL, 24 hours, Warren medium): 3.25 ×10^6 promastigotes/mL | N^o. of promastigotes/mL (×10^6) ([2]; HB-1 25 μg/mL, 48 hours, Warren medium): 1.8 ×10^6 promastigotes/mL | N^o. of promastigotes/mL (×10^6) ([2]; HB-1 25 μg/mL, 72 hours, Warren medium): 0.4 ×10^6 promastigotes/mL | N^o. of promastigotes/mL (×10^6) ([2]; HB-1 25 μg/mL, 96 hours, Warren medium): 0.1 ×10^6 promastigotes/mL | N^o. of promastigotes/mL (×10^6) ([2]; HB-1 25 μg/mL, 120 hours, Warren medium): 0 ×10^6 promastigotes/mL | time of culture to 100% mortality ([2]; HB-1 25 μg/mL, Warren medium): 120 h | N^o. of promastigotes/mL (×10^6) ([2]; HB-1 50 μg/mL, 24 hours, Warren medium): 2.1 ×10^6 promastigotes/mL | N^o. of promastigotes/mL (×10^6) ([2]; HB-1 50 μg/mL, 48 hours, Warren medium): 0.4 ×10^6 promastigotes/mL | N^o. of promastigotes/mL (×10^6) ([2]; HB-1 50 μg/mL, 72 hours, Warren medium): 0.1 ×10^6 promastigotes/mL | N^o. of promastigotes/mL (×10^6) ([2]; HB-1 50 μg/mL, 96 hours, Warren medium): 0 ×10^6 promastigotes/mL | N^o. of promastigotes/mL (×10^6) ([2]; HB-1 50 μg/mL, 120 hours, Warren medium): 0 ×10^6 promastigotes/mL | time of culture to 100% mortality ([2]; HB-1 50 μg/mL, Warren medium): 96 h | N^o. of promastigotes/mL (×10^6) ([2]; HB-1 100 μg/mL, 24 hours, Warren medium): 1.15 ×10^6 promastigotes/mL | N^o. of promastigotes/mL (×10^6) ([2]; HB-1 100 μg/mL, 48 hours, Warren medium): 0.2 ×10^6 promastigotes/mL | N^o. of promastigotes/mL (×10^6) ([2]; HB-1 100 μg/mL, 72 hours, Warren medium): 0 ×10^6 promastigotes/mL | N^o. of promastigotes/mL (×10^6) ([2]; HB-1 100 μg/mL, 96 hours, Warren medium): 0 ×10^6 promastigotes/mL | N^o. of promastigotes/mL (×10^6) ([2]; HB-1 100 μg/mL, 120 hours, Warren medium): 0 ×10^6 promastigotes/mL | time of culture to 100% mortality ([2]; HB-1 100 μg/mL, Warren medium): 72 h | inhibition at 25 µg/mL ([2]; Leishmania, 72 h, read-out: inhibition of parasite proliferation): 81% | inhibition at 50 µg/mL ([2]; Leishmania, HB-1 50 μg/mL, after 72 hours, Warren medium, read-out: inhibition of parasite proliferation): 95.8% | inhibition at 100 µg/mL ([2]; Leishmania, HB-1 100 μg/mL, after 72 hours, Warren medium, read-out: inhibition of parasite proliferation): 100%
